How the values were obtained:
IL-6 = experiment: THP-1 AlphaLISA IL-6 cytokine assay; format: cell-based; conditions: Homo sapiens, THP-1, differentiated THP-1 cells, LPS 24 hr then Nigericin 1 hour
Protocol: (§1) Measuring Inhibitory Effects on IL-1V and IL-6 Cytokine Output from THP-1s
(§2) The cytokine inhibition profiles of compounds of formula (I) were determined in a differentiated THP-1 cell assay. All assays were performed in RPMI-1640 growth medium (Gibco), supplemented with 10% fetal bovine serum (FBS; Gibco), 1% penicillin-streptomycin and 1% sodium pyruvate unless specified otherwise. The IL-1β and IL-6 cytokine inhibition assays were run in a background of differentiated THP-1 cells as described below. All reagents described were from Sigma-Aldrich unless specified otherwise. Compounds were prepared as 10 mM DMSO stocks.
(§3) THP-1 cells were expanded as a suspension up to 80% confluence in appropriate growth medium. Cells were harvested, suspended, and treated with an appropriate concentration of phorbol 12-myristate 13-acetate (PMA) over a 72 hr period (37° C./5% CO2).
(§4) Following 72 hrs of THP-1 cell incubation, cellular medium was removed and replaced with fresh growth media containing 1% of FBS. Working concentrations of compounds were prepared separately in 10% FBS treated growth medium and pre-incubated with the cells for 30 minutes (37° C./5% CO2). Following the 30 minute compound pre-incubation, THP-1s were treated with an appropriate concentration of LPS and the THP-1s were subsequently incubated for a 24 hr period (37° C./5% CO2). An appropriate final concentration of Nigericin was then dispensed into the THP-1 plates and incubated for 1 hour (37° C./5% CO2) before THP-1 supernatants were harvested and collected in separate polypropylene 96-well holding plates.
(§5) Reagents from each of the IL-1β and IL-6 commercial kits (Perkin Elmer) were prepared and run according to the manufacturer's instructions. Subsequently, fluorescence signal detection in a microplate reader was measured (EnVision® Multilabel Reader, Perkin Elmer).
(§6) Percentage inhibition was calculated per cytokine by normalising the sample data to the high and low controls used within each plate (+/−LPS respectively). Percentage inhibition was then plotted against compound concentration and the 50% inhibitory concentration ([…]) was determined from the resultant concentration-response curve.

IL-1β = experiment: THP-1 AlphaLISA IL-1β cytokine assay; format: cell-based; conditions: Homo sapiens, THP-1, differentiated THP-1 cells
Protocol: as §1, §2, §3, §4, §5, §6

[1] = Hepatocyte stability assay (mouse); format: in vitro ADME; conditions: mouse, cryopreserved hepatocytes, 10 μM compound, 60 min, read-out: T½
Source text: (§7) Defrosted cryo-preserved hepatocytes (viability>70%) were used to determine the metabolic stability of a compound via calculation of intrinsic clearance (Clint; a measure of the removal of a compound from the liver in the absence of blood flow and cell binding). Clearance data are particularly important for in vitro work as they can be used in combination with in vivo data to predict the half-life and oral bioavailability of a drug.
(§8) The metabolic stability in hepatocytes assay involved a time-dependent reaction using both positive and negative controls. The cells must be pre-incubated at 37° C. then spiked with test compound (and positive control); samples taken at pre-determined time intervals were analysed to monitor the change in concentration of the initial drug compound over 60 minutes. A buffer incubation reaction (with no hepatocytes present) acted as a negative control and two cocktail solutions, containing compounds with known high and low clearance values (verapamil/7-hydroxycoumarin and propranolol/diltiazem), acted as positive controls. • 1. The assay was run with a cell concentration of 0.5×10^6 cells/mL in Leibovitz buffer. • 2. All compounds and controls were run in duplicate. • 3. Compound concentration was 10 μM. • 4. All compounds and controls were incubated with both cells and buffer to show turnover is due to hepatic metabolism. • 5. All wells on the incubation plate had 326.7 μL of either cells or buffer added. • 6. Prior to assay, cell and buffer-only incubation plates were preincubated for 10 mins at 37° C. • 7. The assay was initiated by adding compounds, 3.3 μL of 1 mM in 10% DMSO-90% Buffer; final DMSO concentration is 0.1%. • 8. Samples were taken at regular timepoints (0, 5, 10, 20, 40, 60 min) until 60 mins. • 9. Sample volume was 40 μL and added to 160 μL of crash solvent (acetonitrile with internal standard) and stored on ice. • 10. At the end of the assay, the crash plates were centrifuged at 3500 rpm for 20 mins at 4° C. • 11. 80 μL of clear supernatant was removed and mixed with 80 μL of deionised water before being analysed by LC-MS/MS.
(§9) Raw LC-MS/MS data were exported to, and analysed in, Microsoft Excel for determination of intrinsic clearance. The percentage remaining of a compound was monitored using the peak area of the initial concentration as 100%. Intrinsic clearance and half-life values were calculated using a graph of the natural log of percentage remaining versus the time of reaction in minutes. Half-life (min) and intrinsic clearance (Clint in μL min^−1 10^−6 cells) values were calculated using the gradient of the graph (the elimination rate constant, k) and Equations 1 and 2.

hepatocytes [2] = experiment: Hepatocyte stability assay (mouse); format: in vitro ADME; conditions: 10 μM compound, 60 min
Source text: as §7, §8, §9

[3] = Hepatocyte stability assay (human); format: in vitro ADME; conditions: human, cryopreserved hepatocytes, 10 μM compound, 60 min, read-out: T½
Source text: as §7, §8, §9

hepatocytes [4] = experiment: Hepatocyte stability assay (human); format: in vitro ADME; conditions: 10 μM compound, 60 min
Source text: as §7, §8, §9

[5] = LPS 24 hr then Nigericin 1 hour

C=C(CC(=O)OC1(c2ccc(C(F)(F)F)s2)CCC1)C(=O)O [Example 32, 2-methylene-4-oxo-4-(1-(5-(trifluoromethyl)thiophen-2-yl)cyclobutoxy)butanoic acid]
IC50 (IL-6): > 100 µM | IC50 (IL-1β; [5]): 5.2 µM | half-life at 10 μM [1]: 1.27 h | Clint (hepatocytes [2]): 21 μL min^−1 10^−6 cells | half-life at 10 μM [3]: 1.53 h | Clint (hepatocytes [4]): 17 μL min^−1 10^−6 cells

C=C(CC(=O)OC1(c2ccc(Br)cn2)CCC1)C(=O)O [Example 50, 4-(1-(5-bromopyridin-2-yl)cyclobutoxy)-2-methylene-4-oxobutanoic acid]
IC50 (IL-6): > 100 µM | IC50 (IL-1β; [5]): 1.5 µM | half-life at 10 μM [1]: 7 h | Clint (hepatocytes [2]): 4 μL min^−1 10^−6 cells | half-life at 10 μM [3]: > 7.67 h | Clint (hepatocytes [4]): <3 μL min^−1 10^−6 cells

C=C(CC(=O)O[C@]1(c2ccc(C(F)(F)F)cc2)C[C@H](OC)C1)C(=O)O [Example 42, 4-((cis)-3-methoxy-1-(4-(trifluoromethyl)phenyl)cyclobutoxy)-2-methylene-4-oxobutanoic acid]
IC50 (IL-6): > 31.6 µM | IC50 (IL-1β; [5]): 17.1 µM | half-life at 10 μM [1]: > 7.67 h | Clint (hepatocytes [2]): <3 μL min^−1 10^−6 cells | half-life at 10 μM [3]: 7.47 h | Clint (hepatocytes [4]): 4 μL min^−1 10^−6 cells

C=C(CC(=O)OC1(c2ccc(C(F)(F)F)cc2)CCOCC1)C(=O)O [Example 47, 2-methylene-4-oxo-4-((4-(4-(trifluoromethyl)phenyl)tetrahydro-2H-pyran-4-yl)oxy)butanoic acid]
IC50 (IL-6): > 100 µM | IC50 (IL-1β; [5]): 6.7 µM | half-life at 10 μM [1]: > 7.67 h | Clint (hepatocytes [2]): <3 μL min^−1 10^−6 cells | half-life at 10 μM [3]: > 7.67 h | Clint (hepatocytes [4]): <3 μL min^−1 10^−6 cells

C=C(CC(=O)OC1(c2ccc(C(F)(F)F)cn2)CCC1)C(=O)O [Example 27, 2-methylene-4-oxo-4-(1-(5-(trifluoromethyl)pyridin-2-yl)cyclobutoxy)butanoic acid]
IC50 (IL-6): > 100 µM | IC50 (IL-1β; [5]): 1.4 µM | IC50 (IL-1β; data from repeated experiments): 4 µM | half-life at 10 μM [1]: > 7.67 h | Clint (hepatocytes [2]): <3 μL min^−1 10^−6 cells | half-life at 10 μM [3]: > 7.67 h | Clint (hepatocytes [4]): <3 μL min^−1 10^−6 cells

C=C(CC(=O)OC1(c2ccc(C(F)(F)F)nc2)CCC1)C(=O)O [Example 22, 2-methylene-4-oxo-4-(1-(6-(trifluoromethyl)pyridin-3-yl)cyclobutoxy)butanoic acid]
IC50 (IL-6): > 100 µM | IC50 (IL-1β; [5]): 5.1 µM | half-life at 10 μM [1]: 8.87 h | Clint (hepatocytes [2]): 4 μL min^−1 10^−6 cells | half-life at 10 μM [3]: > 7.67 h | Clint (hepatocytes [4]): <3 μL min^−1 10^−6 cells

C=C(CC(=O)OC1(c2ccc(C(F)(F)F)c(F)c2)CCC1)C(=O)O [Example 17, 4-(1-(3-fluoro-4-(trifluoromethyl)phenyl)cyclobutoxy)-2-methylene-4-oxobutanoic acid]
IC50 (IL-6): > 31.6 µM | IC50 (IL-1β; [5]): 2 µM | half-life at 10 μM [1]: 3.53 h | Clint (hepatocytes [2]): 9 μL min^−1 10^−6 cells | half-life at 10 μM [3]: 2.62 h | Clint (hepatocytes [4]): 11 μL min^−1 10^−6 cells

C=C(C(=O)O)C(C)(C)C(=O)OC1(c2ccc(C(F)(F)F)cc2)CCC1 [Example 30, 3,3-dimethyl-2-methylene-4-oxo-4-(1-(4-(trifluoromethyl)phenyl)cyclobutoxy) butanoic acid]
IC50 (IL-6): > 100 µM | IC50 (IL-1β; [5]): 1.2 µM | half-life at 10 μM [1]: 0.25 h | Clint (hepatocytes [2]): 104 μL min^−1 10^−6 cells | half-life at 10 μM [3]: 0.617 h | Clint (hepatocytes [4]): 41 μL min^−1 10^−6 cells

C=C(CC(=O)OC1(c2ccc(C(F)(F)F)cc2)COC1)C(=O)O [Example 24, 2-methylene-4-oxo-4-((3-(4-(trifluoromethyl)phenyl)oxetan-3-yl)oxy)butanoic acid]
IC50 (IL-6): > 100 µM | IC50 (IL-1β; [5]): 1.4 µM | half-life at 10 μM [1]: 2.42 h | Clint (hepatocytes [2]): 11 μL min^−1 10^−6 cells | half-life at 10 μM [3]: > 7.67 h | Clint (hepatocytes [4]): <3 μL min^−1 10^−6 cells

C=C(CC(=O)OC1(c2ccc(C(F)(F)F)cc2)CS(=O)(=O)C1)C(=O)O [Example 49, 4-((1,1-dioxido-3-(4-(trifluoromethyl)phenyl)thietan-3-yl)oxy)-2-methylene-4-oxobutanoic acid]
IC50 (IL-6): > 100 µM | IC50 (IL-1β; [5]): 5 µM | half-life at 10 μM [1]: 0.317 h | Clint (hepatocytes [2]): 68 μL min^−1 10^−6 cells | half-life at 10 μM [3]: 0.25 h | Clint (hepatocytes [4]): 91 μL min^−1 10^−6 cells

C=C(CC(=O)OC1(c2ccc(Cl)cn2)CCC1)C(=O)O [Example 51, 4-(1-(5-chloropyridin-2-yl)cyclobutoxy)-2-methylene-4-oxobutanoic acid]
IC50 (IL-6): > 31.6 µM | IC50 (IL-1β; [5]): 6.4 µM | half-life at 10 μM [1]: > 7.67 h | Clint (hepatocytes [2]): <3 μL min^−1 10^−6 cells | half-life at 10 μM [3]: > 7.67 h | Clint (hepatocytes [4]): <3 μL min^−1 10^−6 cells

C=C(CC(=O)OC1(c2ncc(C(F)(F)F)cn2)CCC1)C(=O)O [Example 52, 2-methylene-4-oxo-4-(1-(5-(trifluoromethyl)pyrimidin-2-yl)cyclobutoxy)butanoic acid]
IC50 (IL-6): > 100 µM | IC50 (IL-1β; [5]): 11.7 µM | half-life at 10 μM [1]: 5.12 h | Clint (hepatocytes [2]): 5 μL min^−1 10^−6 cells | half-life at 10 μM [3]: > 7.67 h | Clint (hepatocytes [4]): <3 μL min^−1 10^−6 cells

C=C(CC(=O)OC1(c2ccc(Br)cc2)COC1)C(=O)O [Example 23, 4-((3-(4-bromophenyl)oxetan-3-yl)oxy)-2-methylene-4-oxobutanoic acid]
IC50 (IL-6): > 100 µM | IC50 (IL-1β; [5]): 1.4 µM | half-life at 10 μM [1]: 2.1 h | Clint (hepatocytes [2]): 12 μL min^−1 10^−6 cells | half-life at 10 μM [3]: > 7.67 h | Clint (hepatocytes [4]): <3 μL min^−1 10^−6 cells

C=C(CC(=O)O[C@]1(c2ccc(C(F)(F)F)cc2)C[C@H](C#N)C1)C(=O)O [Example 41, 4-((cis)-3-cyano-1-(4-(trifluoromethyl)phenyl)cyclobutoxy)-2-methylene-4-oxobutanoic acid]
IC50 (IL-6): > 31.6 µM | IC50 (IL-1β; [5]): 2.1 µM | half-life at 10 μM [1]: 4.87 h | Clint (hepatocytes [2]): 8 μL min^−1 10^−6 cells | half-life at 10 μM [3]: > 7.67 h | Clint (hepatocytes [4]): <3 μL min^−1 10^−6 cells

C=C(CC(=O)OC1(c2ccc(Br)cc2)CCC1)C(=O)O [Example 5, 4-(1-(4-bromophenyl)cyclobutoxy)-2-methylene-4-oxobutanoic acid]
IC50 (IL-6): > 31.6 µM | IC50 (IL-1β; [5]): 0.7 µM | half-life at 10 μM [1]: 1.13 h | Clint (hepatocytes [2]): 25 μL min^−1 10^−6 cells | half-life at 10 μM [3]: 1.48 h | Clint (hepatocytes [4]): 15 μL min^−1 10^−6 cells

C=C(CC(=O)OC1(c2ccc(C(C)(F)F)cc2)CCC1)C(=O)O [Example 19, 4-(1-(4-(1,1-difluoroethyl)phenyl)cyclobutoxy)-2-methylene-4-oxobutanoic acid]
IC50 (IL-6): > 68.1 µM | IC50 (IL-1β; [5]): 1.2 µM | half-life at 10 μM [1]: 1.35 h | Clint (hepatocytes [2]): 23 μL min^−1 10^−6 cells | half-life at 10 μM [3]: 7.45 h | Clint (hepatocytes [4]): 4 μL min^−1 10^−6 cells

Source: US20230399287A1, “NOVEL COMPOUNDS” (Sitryx Therapeutics Limited, priority 2020, published 2023)
